Assay results as given in PubChem BioAssay (NCI).
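1) Cells in 96-well plates. 2) Compound, 48 h, 5 concentrations. 3) Linear interpolation between surrounding doses. 4) Unreached endpoint = highest concentration. GI50 marks 50% less growth. TGI is the concentration that stops growth completely.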

How the values were obtained:
Assay in all cases: NCI anticancer screen, dose series, 48 h
[1] = test system: 786-0 renal
[2] = test system: BT-549 breast
[3] = test system: OVCAR-4 ovarian
[4] = test system: SK-MEL-2 melanoma
[5] = test system: HCT-116 colon
[6] = test system: ACHN renal
[7] = test system: K-562 leukemia
[8] = test system: HT29 colon
[9] = test system: MALME-3M melanoma
[10] = test system: DU-145 prostate
[11] = test system: RPMI-8226 leukemia
[12] = test system: M14 melanoma
[13] = test system: OVCAR-3 ovarian
[14] = test system: MDA-MB-231 breast
[15] = test system: SK-OV-3 ovarian
[16] = test system: HOP-62 NSCLC
[17] = test system: KM12 colon
[18] = test system: SF-268 CNS
[19] = test system: NCI-H460 lung
[20] = test system: MCF7 breast
[21] = test system: NCI-H23 lung
[22] = test system: MOLT-4 leukemia
[23] = test system: NCI/ADR-RES ovarian
[24] = test system: CCRF-CEM leukemia
[25] = test system: MDA-MB-435
[26] = test system: SW-620 colon
[27] = test system: SN12C renal
[28] = test system: HOP-92 NSCLC
[29] = test system: SK-MEL-5 melanoma
[30] = test system: IGROV1 ovarian
[31] = test system: OVCAR-5 ovarian
[32] = test system: TK-10 renal
[33] = test system: A549 NSCLC
[34] = test system: SF-295 CNS
[35] = test system: SNB-19 CNS
[36] = test system: HS 578T breast
[37] = test system: COLO 205 colon
[38] = test system: SF-539 CNS
[39] = test system: UACC-62 melanoma
[40] = test system: A498 renal
[41] = test system: SNB-75 CNS
[42] = test system: HCC-2998 colon
[43] = test system: UACC-257 melanoma
[44] = test system: NCI-H522 lung
[45] = test system: OVCAR-8 ovarian
[46] = test system: HCT-15 colon
[47] = test system: U251 CNS
[48] = test system: NCI-H226 lung
[49] = test system: SK-MEL-28 melanoma
[50] = test system: T-47D breast
[51] = test system: UO-31 renal
[52] = test system: PC-3 prostate
[53] = test system: HL-60(TB) leukemia
[54] = test system: CAKI-1 renal
[55] = test system: EKVX NSCLC
[56] = test system: LOX IMVI melanoma
[57] = test system: RXF 393 renal

COc1cc(/C=C/c2cc(/C=C/c3ccc(O)c(OC)c3)n(C(=O)c3ccc(Cl)cc3)n2)ccc1O
GI50 [1]: 2550 nM | TGI [1]: 16200 nM | GI50 [2]: 1830 nM | TGI [2]: 8320 nM | GI50 [3]: 2020 nM | TGI [3]: 34900 nM | GI50 [4]: 1920 nM | TGI [4]: 5850 nM | GI50 [5]: 2150 nM | TGI [5]: 47900 nM | GI50 [6]: 1030 nM | TGI [6]: 13700 nM | GI50 [7]: 807 nM | TGI [7]: 16400 nM | GI50 [8]: 3420 nM | TGI [8]: > 100000 nM | GI50 [9]: 1310 nM | TGI [9]: 10100 nM | GI50 [10]: 3030 nM | TGI [10]: 13900 nM | GI50 [11]: 1830 nM | TGI [11]: 6330 nM | GI50 [12]: 1500 nM | TGI [12]: 15200 nM | GI50 [13]: 2670 nM | TGI [13]: 7720 nM | GI50 [14]: 2840 nM | TGI [14]: 19600 nM | GI50 [15]: 1830 nM | TGI [15]: 4350 nM | GI50 [16]: 2080 nM | TGI [16]: 6920 nM | GI50 [17]: 1240 nM | TGI [17]: 14400 nM | GI50 [18]: 2650 nM | TGI [18]: 13600 nM | GI50 [19]: 2030 nM | TGI [19]: 20400 nM | GI50 [20]: 2430 nM | TGI [20]: 16000 nM | GI50 [21]: 2350 nM | TGI [21]: 7950 nM | GI50 [22]: 1640 nM | TGI [22]: 11900 nM | GI50 [23]: 2900 nM | TGI [23]: 18000 nM | GI50 [24]: 1640 nM | TGI [24]: > 100000 nM | GI50 [25]: 449 nM | TGI [25]: 10700 nM | GI50 [26]: 3120 nM | TGI [26]: 13800 nM | GI50 [27]: 2350 nM | TGI [27]: 13000 nM | GI50 [28]: 3970 nM | TGI [28]: 22200 nM | GI50 [29]: 2270 nM | TGI [29]: 11600 nM | GI50 [30]: 3170 nM | TGI [30]: 15400 nM | GI50 [31]: 3660 nM | TGI [31]: 18200 nM | GI50 [32]: 4200 nM | TGI [32]: 14700 nM | GI50 [33]: 3300 nM | TGI [33]: 12800 nM | GI50 [34]: 3130 nM | TGI [34]: 12400 nM | GI50 [35]: 2800 nM | TGI [35]: 12100 nM | GI50 [36]: 3230 nM | TGI [36]: > 100000 nM | GI50 [37]: 3780 nM | TGI [37]: 13400 nM | GI50 [38]: 1240 nM | TGI [38]: 6070 nM | GI50 [39]: 2720 nM | TGI [39]: 10100 nM | GI50 [40]: 2710 nM | TGI [40]: 9600 nM | GI50 [41]: 1990 nM | TGI [41]: 10300 nM | GI50 [42]: 3940 nM | TGI [42]: 12800 nM | GI50 [43]: 3790 nM | TGI [43]: 13200 nM | GI50 [44]: 595 nM | TGI [44]: 4320 nM | GI50 [45]: 2800 nM | TGI [45]: 8140 nM | GI50 [46]: 1540 nM | TGI [46]: 26100 nM | GI50 [47]: 2940 nM | TGI [47]: 11600 nM | GI50 [48]: 3510 nM | TGI [48]: 23200 nM | GI50 [49]: 2490 nM | TGI [49]: 12200 nM | GI50 [50]: 1920 nM | TGI [50]: 5860 nM | GI50 [51]: 1390 nM | TGI [51]: 10100 nM | GI50 [52]: 2660 nM | TGI [52]: 15500 nM | GI50 [53]: 1580 nM | TGI [53]: 7620 nM | GI50 [54]: 2970 nM | TGI [54]: 15000 nM

COC1/C=C(C)/C=C/C(C)/C=C/C(=O)OC(/C(C)=C/C=C(\C)CNC(=O)[C@H](CO)NC=O)C(C)/C=C/C=C/C(OC)CC/C=C(C)/C=C/C1 (some centres undefined)
TGI [1]: > 1000 nM | TGI [2]: > 1000 nM | TGI [3]: > 1000 nM | TGI [4]: > 246 nM | TGI [5]: > 1000 nM | TGI [6]: > 1000 nM | TGI [7]: 47.2 nM | TGI [8]: > 1000 nM | TGI [9]: 385 nM | TGI [10]: > 1000 nM | TGI [11]: 76.9 nM | TGI [12]: 35.6 nM | TGI [13]: > 461 nM | TGI [15]: > 1000 nM | TGI [16]: 109 nM | TGI [17]: > 1000 nM | TGI [18]: > 1000 nM | TGI [19]: > 1000 nM | TGI [20]: > 1000 nM | TGI [21]: > 859 nM | TGI [22]: > 611 nM | TGI [23]: > 724 nM | TGI [24]: > 1000 nM | TGI [25]: 47 nM | TGI [26]: > 1000 nM | TGI [27]: > 1000 nM | TGI [28]: > 267 nM | TGI [29]: 65.4 nM | TGI [30]: > 1000 nM | TGI [31]: > 1000 nM | TGI [32]: > 1000 nM | TGI [33]: > 1000 nM | TGI [34]: 53.4 nM | TGI [35]: > 1000 nM | TGI [36]: > 1000 nM | GI50 [37]: 33.1 nM | TGI [37]: > 1000 nM | TGI [38]: > 257 nM | TGI [55]: > 1000 nM | TGI [39]: 55.3 nM | TGI [40]: > 1000 nM | TGI [41]: > 1000 nM | TGI [56]: > 1000 nM | TGI [43]: > 206 nM | GI50 [44]: 36.2 nM | TGI [44]: > 1000 nM | TGI [45]: > 1000 nM | TGI [46]: > 1000 nM | TGI [47]: > 1000 nM | TGI [49]: > 1000 nM | TGI [57]: > 1000 nM | TGI [50]: > 1000 nM | TGI [51]: > 735 nM | TGI [52]: > 352 nM | TGI [53]: 95.7 nM | TGI [54]: > 397 nM
